Data taken from the kinase profiling compilation of Christmann-Franck et al. (2016).

How the values were obtained:
Experiment in all cases: radiometric filter-binding kinase assay, Kinase HotSpot
Settings in all cases: compound 0.5 µM; ATP 10 µM
ACVR1 (human) = ACVR1 (human) (UniProt Q04771)
BRSK1 (human) = BRSK1 (human) (UniProt Q8TDC3)
CAMK1 (human) = CAMK1 (human) (UniProt Q14012)
CAMK1G (human) = CAMK1G (human) (UniProt Q96NX5)
CAMK2D (human) = CAMK2D (human) (UniProt Q13557)
CDK5 CDK5R1 p25 (human) = CDK5 CDK5R1 p25 (human) (UniProt Q00535+Q15078)
CHUK (human) = CHUK (human) (UniProt O15111)
CSNK1G1 (human) = CSNK1G1 (human) (UniProt Q9HCP0)
CSNK2A1 (human) = CSNK2A1 (human) (UniProt P68400)
DAPK1 (human) = DAPK1 (human) (UniProt P53355)
DDR2 (human) = DDR2 (human) (UniProt Q16832)
EPHA1 (human) = EPHA1 (human) (UniProt P21709)
EPHA2 (human) = EPHA2 (human) (UniProt P29317)
EPHA3 (human) = EPHA3 (human) (UniProt P29320)
EPHA7 (human) = EPHA7 (human) (UniProt Q15375)
EPHB1 (human) = EPHB1 (human) (UniProt P54762)
FER (human) = FER (human) (UniProt P16591)
GRK6 (human) = GRK6 (human) (UniProt P43250)
HIPK1 (human) = HIPK1 (human) (UniProt Q86Z02)
HIPK2 (human) = HIPK2 (human) (UniProt Q9H2X6)
IRAK1 (human) = IRAK1 (human) (UniProt P51617)
LTK (human) = LTK (human) (UniProt P29376)
MAP3K5 (human) = MAP3K5 (human) (UniProt Q99683)
MAPK1 (human) = MAPK1 (human) (UniProt P28482)
MAPK8 (human) = MAPK8 (human) (UniProt P45983)
MARK2 (human) = MARK2 (human) (UniProt Q7KZI7)
MST1R (human) = MST1R (human) (UniProt Q04912)
NEK3 (human) = NEK3 (human) (UniProt P51956)
NEK4 (human) = NEK4 (human) (UniProt P51957)
NEK6 (human) = NEK6 (human) (UniProt Q9HC98)
NEK7 (human) = NEK7 (human) (UniProt Q8TDX7)
PRKCB1 (human) = PRKCB1 (human) (UniProt P05771)
PRKCI (human) = PRKCI (human) (UniProt P41743)
PRKD2 (human) = PRKD2 (human) (UniProt Q9BZL6)
PTK6 (human) = PTK6 (human) (UniProt Q13882)
RPS6KB1 (human) = RPS6KB1 (human) (UniProt P23443)
SRMS (human) = SRMS (human) (UniProt Q9H3Y6)
STK25 (human) = STK25 (human) (UniProt O00506)
SYK (human) = SYK (human) (UniProt P43405)
TAOK1 (human) = TAOK1 (human) (UniProt Q7L7X3)
ULK2 (human) = ULK2 (human) (UniProt Q8IYT8)

EPHA2 (human), sequence (P29317 whole entry, looked up): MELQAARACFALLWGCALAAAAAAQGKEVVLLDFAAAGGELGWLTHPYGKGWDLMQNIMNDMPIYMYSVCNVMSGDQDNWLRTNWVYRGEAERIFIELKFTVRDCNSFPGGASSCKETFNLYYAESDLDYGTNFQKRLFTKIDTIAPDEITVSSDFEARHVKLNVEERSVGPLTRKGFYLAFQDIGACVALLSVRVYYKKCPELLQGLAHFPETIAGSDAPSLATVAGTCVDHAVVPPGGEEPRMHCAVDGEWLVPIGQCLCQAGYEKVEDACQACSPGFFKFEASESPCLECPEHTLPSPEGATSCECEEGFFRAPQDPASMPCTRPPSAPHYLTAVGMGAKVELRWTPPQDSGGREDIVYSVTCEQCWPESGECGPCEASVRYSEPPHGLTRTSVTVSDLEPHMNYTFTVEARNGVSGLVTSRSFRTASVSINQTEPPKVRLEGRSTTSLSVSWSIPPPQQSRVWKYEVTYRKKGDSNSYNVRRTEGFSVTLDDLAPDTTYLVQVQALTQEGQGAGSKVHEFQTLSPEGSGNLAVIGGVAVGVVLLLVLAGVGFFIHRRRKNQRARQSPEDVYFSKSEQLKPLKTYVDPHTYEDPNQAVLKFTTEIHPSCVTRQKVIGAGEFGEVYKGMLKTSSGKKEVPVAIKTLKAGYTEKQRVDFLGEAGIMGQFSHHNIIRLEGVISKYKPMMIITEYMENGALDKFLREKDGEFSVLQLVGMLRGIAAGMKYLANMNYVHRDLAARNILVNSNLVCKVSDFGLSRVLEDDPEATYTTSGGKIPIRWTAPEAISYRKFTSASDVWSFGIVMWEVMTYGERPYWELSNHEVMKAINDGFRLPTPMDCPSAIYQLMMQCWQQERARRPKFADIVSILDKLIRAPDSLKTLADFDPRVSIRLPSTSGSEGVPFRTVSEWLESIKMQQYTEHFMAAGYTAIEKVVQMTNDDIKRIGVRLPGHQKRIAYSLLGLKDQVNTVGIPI
DDR2 (human), sequence (Q16832 whole entry, looked up): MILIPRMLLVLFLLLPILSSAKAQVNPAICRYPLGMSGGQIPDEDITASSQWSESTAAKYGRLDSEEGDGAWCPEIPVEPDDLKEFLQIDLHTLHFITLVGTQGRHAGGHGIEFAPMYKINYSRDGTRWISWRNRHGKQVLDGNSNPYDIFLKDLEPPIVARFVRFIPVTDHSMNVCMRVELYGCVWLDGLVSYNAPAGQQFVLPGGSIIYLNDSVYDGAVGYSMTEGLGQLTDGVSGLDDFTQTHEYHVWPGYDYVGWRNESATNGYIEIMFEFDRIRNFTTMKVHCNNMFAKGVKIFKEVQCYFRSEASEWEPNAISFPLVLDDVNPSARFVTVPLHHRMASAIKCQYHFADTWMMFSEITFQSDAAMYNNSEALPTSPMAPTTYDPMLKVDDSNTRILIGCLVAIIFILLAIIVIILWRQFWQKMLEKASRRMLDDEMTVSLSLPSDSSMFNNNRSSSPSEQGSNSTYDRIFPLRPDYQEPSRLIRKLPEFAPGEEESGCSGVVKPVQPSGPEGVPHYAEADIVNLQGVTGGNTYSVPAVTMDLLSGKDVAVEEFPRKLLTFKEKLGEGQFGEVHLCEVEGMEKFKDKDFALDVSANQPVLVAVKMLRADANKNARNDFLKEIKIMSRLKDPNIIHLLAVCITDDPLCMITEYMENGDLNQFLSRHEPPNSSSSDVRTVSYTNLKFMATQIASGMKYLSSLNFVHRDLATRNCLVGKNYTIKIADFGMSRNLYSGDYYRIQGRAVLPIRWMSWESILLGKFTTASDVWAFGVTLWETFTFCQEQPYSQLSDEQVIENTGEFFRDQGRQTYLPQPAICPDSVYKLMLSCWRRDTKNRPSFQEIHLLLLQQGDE
EPHA1 (human), sequence (P21709 whole entry, looked up): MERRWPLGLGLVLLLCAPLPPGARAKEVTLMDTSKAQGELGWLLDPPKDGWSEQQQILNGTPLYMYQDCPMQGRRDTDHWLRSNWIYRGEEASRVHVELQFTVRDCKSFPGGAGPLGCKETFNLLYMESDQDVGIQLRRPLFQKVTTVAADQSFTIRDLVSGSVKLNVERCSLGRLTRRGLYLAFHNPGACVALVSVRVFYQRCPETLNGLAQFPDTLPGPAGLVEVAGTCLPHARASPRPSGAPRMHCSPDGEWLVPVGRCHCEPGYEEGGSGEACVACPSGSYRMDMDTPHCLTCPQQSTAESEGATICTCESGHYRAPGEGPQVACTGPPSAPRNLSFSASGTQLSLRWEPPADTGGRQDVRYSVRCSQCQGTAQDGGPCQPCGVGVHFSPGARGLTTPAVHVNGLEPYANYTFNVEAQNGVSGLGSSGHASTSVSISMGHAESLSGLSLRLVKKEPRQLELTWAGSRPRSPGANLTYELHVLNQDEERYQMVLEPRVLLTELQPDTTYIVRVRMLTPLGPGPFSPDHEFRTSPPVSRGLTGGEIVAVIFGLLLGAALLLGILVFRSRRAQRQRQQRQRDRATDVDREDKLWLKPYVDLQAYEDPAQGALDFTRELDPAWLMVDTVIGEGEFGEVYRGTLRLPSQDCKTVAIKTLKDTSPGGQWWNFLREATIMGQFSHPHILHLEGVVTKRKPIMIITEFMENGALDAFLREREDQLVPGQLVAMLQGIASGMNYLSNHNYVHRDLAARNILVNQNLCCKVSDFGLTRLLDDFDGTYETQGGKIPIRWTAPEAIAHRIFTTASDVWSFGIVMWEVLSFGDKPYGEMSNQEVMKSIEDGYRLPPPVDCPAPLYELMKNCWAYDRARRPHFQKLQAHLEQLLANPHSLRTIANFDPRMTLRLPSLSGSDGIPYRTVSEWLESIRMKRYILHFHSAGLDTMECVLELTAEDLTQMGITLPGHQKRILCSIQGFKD
NEK3 (human), sequence (P51956 whole entry, looked up): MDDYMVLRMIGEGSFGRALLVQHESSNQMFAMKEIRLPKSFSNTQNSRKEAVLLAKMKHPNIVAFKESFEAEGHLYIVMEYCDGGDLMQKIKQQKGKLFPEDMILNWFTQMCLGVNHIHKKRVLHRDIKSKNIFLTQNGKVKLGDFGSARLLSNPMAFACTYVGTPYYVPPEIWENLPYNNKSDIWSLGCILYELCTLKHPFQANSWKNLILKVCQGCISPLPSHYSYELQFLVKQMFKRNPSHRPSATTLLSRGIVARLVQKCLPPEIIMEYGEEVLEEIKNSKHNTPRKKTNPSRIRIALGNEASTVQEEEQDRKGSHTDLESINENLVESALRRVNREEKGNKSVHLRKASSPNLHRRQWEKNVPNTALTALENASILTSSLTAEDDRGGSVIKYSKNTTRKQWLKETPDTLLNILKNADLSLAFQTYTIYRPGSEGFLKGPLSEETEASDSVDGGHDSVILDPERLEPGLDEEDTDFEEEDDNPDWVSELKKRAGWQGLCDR
CAMK1 (human), sequence (Q14012 whole entry, looked up): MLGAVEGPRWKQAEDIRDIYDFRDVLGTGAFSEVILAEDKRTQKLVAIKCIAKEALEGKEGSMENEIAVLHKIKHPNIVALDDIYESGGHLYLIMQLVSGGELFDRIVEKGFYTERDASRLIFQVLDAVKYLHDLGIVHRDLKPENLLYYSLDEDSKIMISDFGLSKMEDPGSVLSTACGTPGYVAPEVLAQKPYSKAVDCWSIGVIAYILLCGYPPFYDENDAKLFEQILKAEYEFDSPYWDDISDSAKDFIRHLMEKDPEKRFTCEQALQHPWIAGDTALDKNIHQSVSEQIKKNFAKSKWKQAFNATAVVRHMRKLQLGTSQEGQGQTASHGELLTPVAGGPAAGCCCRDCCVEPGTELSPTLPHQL
IRAK1 (human), sequence (P51617 whole entry, looked up): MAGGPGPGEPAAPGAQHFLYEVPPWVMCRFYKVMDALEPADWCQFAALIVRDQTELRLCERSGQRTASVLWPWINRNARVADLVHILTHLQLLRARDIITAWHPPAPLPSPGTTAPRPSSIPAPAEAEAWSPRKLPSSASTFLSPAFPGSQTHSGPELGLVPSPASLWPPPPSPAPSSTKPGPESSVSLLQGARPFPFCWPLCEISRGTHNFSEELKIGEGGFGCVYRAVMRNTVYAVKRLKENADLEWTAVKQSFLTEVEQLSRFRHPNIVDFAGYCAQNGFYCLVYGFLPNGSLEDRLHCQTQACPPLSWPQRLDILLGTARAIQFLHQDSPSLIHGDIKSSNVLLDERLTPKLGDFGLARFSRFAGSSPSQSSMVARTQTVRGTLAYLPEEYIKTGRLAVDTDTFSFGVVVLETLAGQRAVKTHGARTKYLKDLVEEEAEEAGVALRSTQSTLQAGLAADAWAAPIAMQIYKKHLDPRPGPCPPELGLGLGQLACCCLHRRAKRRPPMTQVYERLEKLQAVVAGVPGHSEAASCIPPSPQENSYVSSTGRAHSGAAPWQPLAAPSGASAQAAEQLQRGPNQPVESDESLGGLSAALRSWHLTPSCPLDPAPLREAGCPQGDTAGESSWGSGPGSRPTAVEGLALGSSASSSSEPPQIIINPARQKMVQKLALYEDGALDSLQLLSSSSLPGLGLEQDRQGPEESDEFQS
PRKCB1 (human), sequence (P05771 whole entry, looked up): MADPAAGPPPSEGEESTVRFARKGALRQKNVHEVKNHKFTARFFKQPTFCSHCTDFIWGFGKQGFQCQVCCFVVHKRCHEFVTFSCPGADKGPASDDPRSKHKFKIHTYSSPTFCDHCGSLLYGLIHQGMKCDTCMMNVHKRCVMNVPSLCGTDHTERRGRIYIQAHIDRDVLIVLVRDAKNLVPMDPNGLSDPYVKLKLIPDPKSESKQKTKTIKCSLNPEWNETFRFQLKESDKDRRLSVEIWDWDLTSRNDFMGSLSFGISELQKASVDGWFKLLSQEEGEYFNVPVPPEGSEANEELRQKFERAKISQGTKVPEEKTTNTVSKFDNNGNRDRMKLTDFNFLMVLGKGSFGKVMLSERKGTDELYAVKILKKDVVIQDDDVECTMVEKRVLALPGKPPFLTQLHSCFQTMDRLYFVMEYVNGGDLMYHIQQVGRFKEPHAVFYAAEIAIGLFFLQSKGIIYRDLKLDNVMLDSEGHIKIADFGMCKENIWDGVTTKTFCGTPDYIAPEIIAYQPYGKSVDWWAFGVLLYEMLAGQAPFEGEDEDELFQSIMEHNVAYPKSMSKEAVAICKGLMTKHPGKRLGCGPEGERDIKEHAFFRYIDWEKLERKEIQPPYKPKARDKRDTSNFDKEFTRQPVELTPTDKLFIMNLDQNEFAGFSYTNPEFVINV

Structure (SMILES): Cc1ccc(S(=O)(=O)/C=C/C#N)cc1
- residual activity (ACVR1 (human)): 101%
- residual activity (BRSK1 (human)): 97.2%
- residual activity (CAMK1 (human)): 98.8%
- residual activity (CAMK1G (human)): 99.9%
- residual activity (CAMK2D (human)): 102%
- residual activity (CDK5 CDK5R1 p25 (human)): 86.8%
- residual activity (CHUK (human)): 87.3%
- residual activity (CSNK1G1 (human)): 101%
- residual activity (CSNK2A1 (human)): 94.3%
- residual activity (DAPK1 (human)): 100%
- residual activity (DDR2 (human)): 96.4%
- residual activity (EPHA1 (human)): 93.2%
- residual activity (EPHA2 (human)): 105%
- residual activity (EPHA3 (human)): 95%
- residual activity (EPHA7 (human)): 99.8%
- residual activity (EPHB1 (human)): 100%
- residual activity (FER (human)): 104%
- residual activity (GRK6 (human)): 112%
- residual activity (HIPK1 (human)): 105%
- residual activity (HIPK2 (human)): 83.9%
- residual activity (IRAK1 (human)): 103%
- residual activity (LTK (human)): 114%
- residual activity (MAP3K5 (human)): 100%
- residual activity (MAPK1 (human)): 100%
- residual activity (MAPK8 (human)): 74.7%
- residual activity (MARK2 (human)): 84%
- residual activity (MST1R (human)): 113%
- residual activity (NEK3 (human)): 108%
- residual activity (NEK4 (human)): 94.3%
- residual activity (NEK6 (human)): 108%
- residual activity (NEK7 (human)): 93.4%
- residual activity (PRKCB1 (human)): 101%
- residual activity (PRKCI (human)): 90.3%
- residual activity (PRKD2 (human)): 98.1%
- residual activity (PTK6 (human)): 93.1%
- residual activity (RPS6KB1 (human)): 105%
- residual activity (SRMS (human)): 98.8%
- residual activity (STK25 (human)): 89.6%
- residual activity (SYK (human)): 105%
- residual activity (TAOK1 (human)): 96.5%
- residual activity (ULK2 (human)): 110%

Structure (SMILES): O=c1cc(N2CCOCC2)oc2c1ccc1ccccc12
- residual activity (ACVR1 (human)): 107%
- residual activity (BRSK1 (human)): 100%
- residual activity (CAMK1 (human)): 111%
- residual activity (CAMK1G (human)): 102%
- residual activity (CAMK2D (human)): 99.9%
- residual activity (CDK5 CDK5R1 p25 (human)): 98.9%
- residual activity (CHUK (human)): 93.4%
- residual activity (CSNK1G1 (human)): 101%
- residual activity (CSNK2A1 (human)): 70.9%
- residual activity (DAPK1 (human)): 90.9%
- residual activity (DDR2 (human)): 105%
- residual activity (EPHA1 (human)): 94.2%
- residual activity (EPHA2 (human)): 110%
- residual activity (EPHA3 (human)): 112%
- residual activity (EPHA7 (human)): 98.6%
- residual activity (EPHB1 (human)): 104%
- residual activity (FER (human)): 91.2%
- residual activity (GRK6 (human)): 93.8%
- residual activity (HIPK1 (human)): 102%
- residual activity (HIPK2 (human)): 105%
- residual activity (IRAK1 (human)): 112%
- residual activity (LTK (human)): 101%
- residual activity (MAP3K5 (human)): 98.2%
- residual activity (MAPK1 (human)): 104%
- residual activity (MAPK8 (human)): 97.2%
- residual activity (MARK2 (human)): 101%
- residual activity (MST1R (human)): 103%
- residual activity (NEK3 (human)): 111%
- residual activity (NEK4 (human)): 97.4%
- residual activity (NEK6 (human)): 92.5%
- residual activity (NEK7 (human)): 96.6%
- residual activity (PRKCB1 (human)): 93.4%
- residual activity (PRKCI (human)): 95.5%
- residual activity (PRKD2 (human)): 101%
- residual activity (PTK6 (human)): 101%
- residual activity (RPS6KB1 (human)): 99.3%
- residual activity (SRMS (human)): 97.1%
- residual activity (STK25 (human)): 94.8%
- residual activity (SYK (human)): 93%
- residual activity (TAOK1 (human)): 97.5%
- residual activity (ULK2 (human)): 94.9%

Structure (SMILES): CC[n+]1c(/C=C/N(C)c2ccccc2)n(-c2ccccc2)c2ccc(-c3nc4ccccc4s3)cc21
- residual activity (ACVR1 (human)): 103%
- residual activity (BRSK1 (human)): 101%
- residual activity (CAMK1 (human)): 94.4%
- residual activity (CAMK1G (human)): 101%
- residual activity (CAMK2D (human)): 94%
- residual activity (CDK5 CDK5R1 p25 (human)): 103%
- residual activity (CHUK (human)): 86%
- residual activity (CSNK1G1 (human)): 104%
- residual activity (CSNK2A1 (human)): 96.8%
- residual activity (DAPK1 (human)): 74.7%
- residual activity (DDR2 (human)): 97.4%
- residual activity (EPHA1 (human)): 77.1%
- residual activity (EPHA2 (human)): 100%
- residual activity (EPHA3 (human)): 99.4%
- residual activity (EPHA7 (human)): 97.9%
- residual activity (EPHB1 (human)): 104%
- residual activity (FER (human)): 98.9%
- residual activity (GRK6 (human)): 98.9%
- residual activity (HIPK1 (human)): 99.5%
- residual activity (HIPK2 (human)): 103%
- residual activity (IRAK1 (human)): 102%
- residual activity (LTK (human)): 90.7%
- residual activity (MAP3K5 (human)): 100%
- residual activity (MAPK1 (human)): 112%
- residual activity (MAPK8 (human)): 96.3%
- residual activity (MARK2 (human)): 91.6%
- residual activity (MST1R (human)): 94.4%
- residual activity (NEK3 (human)): 102%
- residual activity (NEK4 (human)): 90.5%
- residual activity (NEK6 (human)): 96.1%
- residual activity (NEK7 (human)): 95.4%
- residual activity (PRKCB1 (human)): 102%
- residual activity (PRKCI (human)): 90.1%
- residual activity (PRKD2 (human)): 102%
- residual activity (PTK6 (human)): 90.2%
- residual activity (RPS6KB1 (human)): 96.8%
- residual activity (SRMS (human)): 93.7%
- residual activity (STK25 (human)): 96.5%
- residual activity (SYK (human)): 104%
- residual activity (TAOK1 (human)): 99.4%
- residual activity (ULK2 (human)): 109%

Structure (SMILES): O=C(Nc1cccc(Nc2nccc(Nc3cccc(C(F)(F)F)c3)n2)c1)C1CC1
- residual activity (ACVR1 (human)): 111%
- residual activity (BRSK1 (human)): 97.1%
- residual activity (CAMK1 (human)): 95.5%
- residual activity (CAMK1G (human)): 98.8%
- residual activity (CAMK2D (human)): 93.5%
- residual activity (CDK5 CDK5R1 p25 (human)): 99%
- residual activity (CHUK (human)): 95.7%
- residual activity (CSNK1G1 (human)): 105%
- residual activity (CSNK2A1 (human)): 94.1%
- residual activity (DAPK1 (human)): 83.5%
- residual activity (DDR2 (human)): 81.7%
- residual activity (EPHA1 (human)): 81.8%
- residual activity (EPHA2 (human)): 87.3%
- residual activity (EPHA3 (human)): 105%
- residual activity (EPHA7 (human)): 112%
- residual activity (EPHB1 (human)): 85.6%
- residual activity (FER (human)): 93%
- residual activity (GRK6 (human)): 93.8%
- residual activity (HIPK1 (human)): 98.7%
- residual activity (HIPK2 (human)): 103%
- residual activity (IRAK1 (human)): 96.4%
- residual activity (LTK (human)): 104%
- residual activity (MAP3K5 (human)): 111%
- residual activity (MAPK1 (human)): 89%
- residual activity (MAPK8 (human)): 85.7%
- residual activity (MARK2 (human)): 97%
- residual activity (MST1R (human)): 92.6%
- residual activity (NEK3 (human)): 95.8%
- residual activity (NEK4 (human)): 83.4%
- residual activity (NEK6 (human)): 103%
- residual activity (NEK7 (human)): 116%
- residual activity (PRKCB1 (human)): 94.7%
- residual activity (PRKCI (human)): 91.3%
- residual activity (PRKD2 (human)): 101%
- residual activity (PTK6 (human)): 72.3%
- residual activity (RPS6KB1 (human)): 98%
- residual activity (SRMS (human)): 95.5%
- residual activity (STK25 (human)): 98.1%
- residual activity (SYK (human)): 101%
- residual activity (TAOK1 (human)): 97.9%
- residual activity (ULK2 (human)): 107%

Structure (SMILES): COc1ccc2c(c[n+](C)c3c4cc5c(cc4ccc23)OCO5)c1OC
- residual activity (ACVR1 (human)): 93.2%
- residual activity (BRSK1 (human)): 90.8%
- residual activity (CAMK1 (human)): 81.4%
- residual activity (CAMK1G (human)): 100%
- residual activity (CAMK2D (human)): 90.4%
- residual activity (CDK5 CDK5R1 p25 (human)): 86.2%
- residual activity (CHUK (human)): 97.5%
- residual activity (CSNK1G1 (human)): 106%
- residual activity (CSNK2A1 (human)): 83.3%
- residual activity (DAPK1 (human)): 86.7%
- residual activity (DDR2 (human)): 96.1%
- residual activity (EPHA1 (human)): 98.3%
- residual activity (EPHA2 (human)): 97.4%
- residual activity (EPHA3 (human)): 94.9%
- residual activity (EPHA7 (human)): 95.4%
- residual activity (EPHB1 (human)): 90.4%
- residual activity (FER (human)): 89.8%
- residual activity (GRK6 (human)): 104%
- residual activity (HIPK1 (human)): 100%
- residual activity (HIPK2 (human)): 92.6%
- residual activity (IRAK1 (human)): 103%
- residual activity (LTK (human)): 95.9%
- residual activity (MAP3K5 (human)): 114%
- residual activity (MAPK1 (human)): 101%
- residual activity (MAPK8 (human)): 89.8%
- residual activity (MARK2 (human)): 95%
- residual activity (MST1R (human)): 97.8%
- residual activity (NEK3 (human)): 95.1%
- residual activity (NEK4 (human)): 96.6%
- residual activity (NEK6 (human)): 104%
- residual activity (NEK7 (human)): 98.9%
- residual activity (PRKCB1 (human)): 100%
- residual activity (PRKCI (human)): 98.3%
- residual activity (PRKD2 (human)): 90.1%
- residual activity (PTK6 (human)): 94.4%
- residual activity (RPS6KB1 (human)): 99.8%
- residual activity (SRMS (human)): 86%
- residual activity (STK25 (human)): 98.8%
- residual activity (SYK (human)): 98.8%
- residual activity (TAOK1 (human)): 105%
- residual activity (ULK2 (human)): 92%
